Article PMC6535779, “A Specific, Glycomimetic Langerin Ligand for Human Langerhans Cell Targeting” (ACS Central Science, 2019)

Biological target: T1, DC-SIGN CRD (Homo sapiens, UniProt Q9NNX6)
T1 construct: with the DC-SIGN CRD were performed at a receptor concentration of 50 μM; made in house
T1 sequence (Q9NNX6 263-378 limits assumed): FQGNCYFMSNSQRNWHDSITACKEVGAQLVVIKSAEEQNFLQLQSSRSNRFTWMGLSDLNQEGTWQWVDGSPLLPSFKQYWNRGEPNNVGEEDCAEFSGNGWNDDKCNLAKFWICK
Assay: 19F R2-filtered NMR reporter displacement assay with DC-SIGN
Type: binding
Settings: for Ki: 19F R2-filtered NMR, DC-SIGN CRD, pH 7.0, 25 °C; for specificity: Table 1, Langerin against DC-SIGN
From the text: Figure S7. 19F R2-filtered NMR assay development with DC-SIGN. […]
substantial line broadeni ng. This phenomenon was utilized to develop the 19F R2-filtered NMR reporter displacement assay following the procedure previously published for Langerin 3. The spectrum in absence of DC -SIGN is processed with an exponential apodization function at 1.8 Hz. b. The interaction between 24 and DC-SIGN was quantified via the transversal relaxation rate R2,obs using the CPMG pulse sequence4-5. Representative decay curves in the presence of DC-SIGN are shown. c. The Ca2+-dependency of the interaction was validated via addition of EDTA. The R2,obs value in absence of DC-SIGN was determined from four independent experiments. The standard error for the experiments in presence of DC-SIGN and EDTA is derived directly from the fitting procedure. d. Relaxation dispersion experiments for 24 in presence of DC-SIGN indicate at negligible exchange contribution R2,ex at a νCPMG value of 500 Hz. In contrast to Langerin, a considerable exchange contribution is observed a lower νCPMG values. e. A representative binding isotherm for the affinity determination for 24 is shown. The KD value was determined from three independent titrations. The obtained K D and additional parameters from the fitting procedure are given in Tab le S3.
(1 picture or pasted object on this page, not shown here)
Receptor Expression and Purification
General remarks. Codon-optimized genes for the expression of Langerin and DC-SIGN in E. coli were purchased from GenScript and Life Technologies, respectively. All growth media or chemicals used for receptor expression and purification were purchased from Carl Roth if not stated otherwise. […]
Langerin and DC-SIGN carbohydrate recognition domain. Expression and purification were conducted as previously published14. Briefly, the monomeric 15N-labeled Langerin and DC-SIGN carbohydrate recognition domains (CRDs) were expressed insolubly in E. coli BL21* (DE3) (Invitrogen). Following enzymatic cell lysis, inclusion bodies were harvested and subsequently solubilized. The sample was centrifuged and the Langerin and DC-SIGN CRDs were refolded overnight via rapid dilution. Next, the sample was dialyzed overnight, centrifuged and purified via StrepTactin affinity chromatography (Iba). After an additional dialysis step overnight, the sample was centrifuged and the buffer was exchanged to 25 mM HEPES with 150 mM NaCl at pH 7.0 using 7 kDa size-exclusion desalting columns (Thermo Scientific) for 19F R2-filtered and 15N HSQC NMR experiments. The concentration of Langerin and DC -SIGN CRDs was determined via UV spectroscopy (A280, 0.1% = 3.19 and A280, 0.1% = 2.98). Purity and monodispersity of Langerin and DC - SIGN CRD samples were analyzed via SDS PAGE and DLS.
General remarks. 19F R2-filtered NMR experiments were conducted on a PremiumCompact 600 MHz spectrometer (Agilent). Spectra were processed in MestReNova and data analysis was performed with OriginPro 13, 15. Experiments with the Langerin ECD were performed at a receptor concentration of 50 μM in 25 mM Tris with 10% D2O, 150 mM NaCl and 5 mM CaCl2 at pH 7.8 and 25° C. Experiments […]
with the DC-SIGN CRD were performed at a receptor concentration of 50 μM in 25 mM HEPES with 10% D2O, 150 mM NaCl and 5 mM CaCl2 at pH 7.0 and 25°C. TFA served as an internal reference at a concentration of 50 μM. Apparent relaxation rates R2,obs for the reporter ligand were determined using the CPMG pulse sequence as previously published3-5.
Assay development for DC-SIGN. The 19F R2-filtered NMR reporter displacement assay for DC-SIGN was developed following the procedure previously published for Langerin3. Briefly, the KD value and the relaxation rate in bound state R2,b were determined at five concentrations [L]T of reporter ligand 24 in three independent titration experiments. Samples were prepared via serial dilution. The addition of 10 mM EDTA served to validate the Ca2+-dependency of the interaction between DC-SIGN and the reporter ligand. […]

Row | Ki | specificity (from KI values) | specificity for Langerin against DC-SIGN (from KI values) | specificity for DC-SIGN over Langerin (from KI values) | Structure (SMILES)
1 | 17 ± 1 mM | 53 |  |  | Cc1ccc(S(=O)(=O)N[C@H]2C(O)O[C@H](CO)[C@@H](O)[C@@H]2O)cc1 (some centres unmarked) [compound 2]
2 | 15 ± 3 mM | 63 | 63 fold |  | CC(=O)NCCO[C@@H]1O[C@H](CO)[C@@H](O)[C@H](O)[C@H]1NS(=O)(=O)c1ccc(C)cc1 [compound 16]
3 | 2.7 ± 0.3 mM | 0.27 |  | 3.7 fold | CC(=O)NCCO[C@H]1O[C@H](CO)[C@@H](O)[C@H](O)[C@@H]1O [compound 21]
